{
  "source": "patent US20240409585A1",
  "about": "“MACROCYCLIC IMMUNOMODULATORS” (priority 2021, published 2024)",
  "note": "Numbered stars: 1 amine (or outer) side, 2 acyl side, 3 side chain; on linkers, the order of the positions; unused ones are H or OH. Bridge positions count the residues as written; N and C are the ends. Square brackets hold non-standard residues; d marks the D form. Peptide text beside a SMILES is read from it. * marks the point of attachment. ξ: configuration not given here. Tyr(3,5-I2) = N[C@@H](Cc1cc(I)c(O)c(I)c1)C(=O)O; Phe(4-COOH) = N[C@@H](Cc1ccc(C(=O)O)cc1)C(=O)O; X16 = O=C([C@H](Cc1ccc2cnccc2c1)N[*:1])[*:2]; Bip = N[C@@H](Cc1ccc(-c2ccccc2)cc1)C(=O)O; Phe(3-CN) = N#Cc1cccc(C[C@H](N)C(=O)O)c1; Phe(3-OMe) = COc1cccc(C[C@H](N)C(=O)O)c1; Phe(3-Me) = Cc1cccc(C[C@H](N)C(=O)O)c1; Phe(4-F) = N[C@@H](Cc1ccc(F)cc1)C(=O)O; Val(3-OH) = CC(C)(O)[C@H](N)C(=O)O; 2Pal = N[C@@H](Cc1ccccn1)C(=O)O; 4Pal = N[C@@H](Cc1ccncc1)C(=O)O; Cha = N[C@@H](CC1CCCCC1)C(=O)O; Cit = NC(=O)NCCC[C@H](N)C(=O)O; Ile(3ξ) = CCC(C)[C@H](N)C(=O)O; Thr(3ξ) = CC(O)[C@H](N)C(=O)O; Pip = O=C(O)[C@@H]1CCCCN1; Carboxymethyl = O=C(O)C*; NMeA = CN[C@@H](C)C(=O)O; Orn = NCCC[C@H](N)C(=O)O; Pra = C#CC[C@H](N)C(=O)O; Dab = NCC[C@H](N)C(=O)O; Dap = NC[C@H](N)C(=O)O",
  "data": [
    {"biological_target": "T1, PE-labeled human PD-L1-Ig binding to Jurkat cell line over-expressing human PD-1 (Jurkat-PD-1) (Homo sapiens, UniProt Q15116)", "T1 construct": "expressed in transfected cells; host or cells: Jurkat", "T1 sequence (Q15116 25-288)": "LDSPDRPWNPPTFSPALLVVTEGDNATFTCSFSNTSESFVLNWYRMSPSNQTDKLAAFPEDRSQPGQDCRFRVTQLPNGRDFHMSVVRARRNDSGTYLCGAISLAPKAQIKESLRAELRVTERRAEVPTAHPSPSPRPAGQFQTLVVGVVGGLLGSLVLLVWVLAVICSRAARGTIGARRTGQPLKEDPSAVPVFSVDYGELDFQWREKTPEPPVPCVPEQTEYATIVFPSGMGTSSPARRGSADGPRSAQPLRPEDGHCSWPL", "test": "Jurkat-PD-1 Cell Binding High-Content Screening Assay (CBA): Method 1", "conditions": "Jurkat-hPD-1 cells, PE-labeled PD-L1-Ig 20 nM final; read-out: Jurkat HPDL1 PD1 IC50 (uM) (Method 1)", "units": {"IC50": "µM"}, "values": [
      {"smiles": "C#CC[C@H](NC(=O)CNC(=O)[C@@H]1CSCC(=O)N[C@@H](Cc2ccc(OCC(=O)O)cc2)C(=O)N[C@@H](Cc2ccc(C(=O)O)cc2)C(=O)N[C@@H](CC(=O)O)C(=O)N[C@@H](Cc2c[nH]c3ccccc23)C(=O)N[C@@H](CC(C)C)C(=O)N[C@@H](Cc2ccc(-c3ccccc3)cc2)C(=O)N[C@@H](C(C)C)C(=O)N(C)[C@@H](C)C(=O)N[C@H](CC(C)C)C(=O)N[C@@H](CCN)C(=O)N[C@@H](CC2CCCCC2)C(=O)N[C@@H](C(C)(C)O)C(=O)N[C@@H](CO)C(=O)N1)C(=O)O", "note": "[Compound 1935] ({CH2CO}-Y(Carboxymethyl)[Phe(4-COOH)]DWL[Bip]V[NMeA][dL][Dab][Cha][Val(3-OH)]SCG[Pra]-OH; thioether N-14)", "IC50": 0.04},
      {"smiles": "Cc1cccc(C[C@@H]2NC(=O)[C@H](CC(=O)O)NC(=O)[C@H](Cc3ccc(OCC(=O)O)cc3)NC(=O)[C@H](Cc3ccc(F)cc3)NC(=O)CSC[C@@H](C(=O)N[C@@H](CCN)C(N)=O)NC(=O)[C@H](CCC(=O)O)NC(=O)[C@H](C(C)(C)O)NC(=O)[C@H](CC3CCCCC3)NC(=O)[C@H](CCN)NC(=O)[C@@H](CC(C)C)NC(=O)[C@H](C)N(C)C(=O)[C@H](Cc3ccc(OCC(=O)O)cc3)NC(=O)[C@H](Cc3ccc(-c4ccccc4)cc3)NC(=O)[C@H](Cc3ccc(OCC(=O)O)cc3)NC2=O)c1", "note": "[Compound 2200] ({CH2CO}-[Phe(4-F)]Y(Carboxymethyl)D[Phe(3-Me)]Y(Carboxymethyl)[Bip]Y(Carboxymethyl)[NMeA][dL][Dab][Cha][Val(3-OH)]EC[Dab]-NH2; thioether N-14)", "IC50": 0.01},
      {"smiles": "CC(C)C[C@@H]1NC(=O)[C@H](Cc2c[nH]c3ccccc23)NC(=O)[C@H](CC(=O)O)NC(=O)[C@H](Cc2ccc(O)cc2)NC(=O)[C@H](Cc2ccccc2)NC(=O)CSC[C@@H](C(=O)NCC(N)=O)NC(=O)[C@H](CO)NC(=O)[C@H](C(C)C)NC(=O)[C@H](CC(C)C)NC(=O)[C@H](CCN)NC(=O)[C@@H](C)NC(=O)[C@H](C)N(C)C(=O)[C@H](C(C)C)NC(=O)[C@H](Cc2ccc(-c3ccccc3)cc2)NC1=O", "note": "[Compound 1479] ({CH2CO}-FYDWL[Bip]V[NMeA][dA][Dab]LVSCG-NH2; thioether N-14)", "IC50": 0.02},
      {"smiles": "Cc1cccc(C[C@@H]2NC(=O)[C@H](CC(=O)O)NC(=O)[C@H](Cc3ccc(OCC(=O)O)cc3)NC(=O)[C@H](CN)NC(=O)CSC[C@@H](C(N)=O)NC(=O)[C@H](CC(N)=O)NC(=O)[C@H](C(C)C)NC(=O)[C@H](CC3CCCCC3)NC(=O)[C@H](CCN)NC(=O)[C@@H](CC(C)C)NC(=O)[C@@H]3CCCCN3C(=O)[C@H](Cc3ccc(OCC(=O)O)cc3)NC(=O)[C@H](Cc3ccc(-c4ccccc4)cc3)NC(=O)[C@H](Cc3ccc(OCC(=O)O)cc3)NC2=O)c1", "note": "[Compound 1895] ({CH2CO}-[Dap]Y(Carboxymethyl)D[Phe(3-Me)]Y(Carboxymethyl)[Bip]Y(Carboxymethyl)[Pip][dL][Dab][Cha]VNC-NH2; thioether N-14)", "IC50": 0.11},
      {"smiles": "CC(C)C[C@@H]1NC(=O)[C@H](CCN)NC(=O)[C@@H](CC(C)C)NC(=O)[C@H](C)N(C)C(=O)[C@H](C(C)C)NC(=O)[C@H](Cc2ccc(-c3ccccc3)cc2)NC(=O)[C@H](C(C)C)NC(=O)[C@H](Cc2c[nH]c3ccccc23)NC(=O)[C@H](CC(=O)O)NC(=O)[C@H](Cc2cccc(C#N)c2)NC(=O)[C@H](CN)NC(=O)CSC[C@@H](C(=O)N[C@@H](C)C(N)=O)NC(=O)[C@H]([C@@H](C)O)NC(=O)[C@H](C(C)C)NC1=O", "note": "[Compound 1436] ({CH2CO}-[Dap][Phe(3-CN)]DWV[Bip]V[NMeA][dL][Dab]LVTCA-NH2; thioether N-14)", "IC50": 0.06},
      {"smiles": "Cc1cccc(C[C@@H]2NC(=O)[C@H](CC(=O)O)NC(=O)[C@H](Cc3ccc(O)cc3)NC(=O)[C@H](CC(N)=O)NC(=O)CSC[C@@H](C(=O)N[C@H](C)C(N)=O)NC(=O)[C@H](CCC(=O)O)NC(=O)[C@H](C(C)C)NC(=O)[C@H](CC3CCCCC3)NC(=O)[C@H](CCN)NC(=O)[C@@H](CC(C)C)NC(=O)[C@H](C)N(C)C(=O)[C@H](CCCNC(N)=O)NC(=O)[C@H](Cc3ccc(-c4ccccc4)cc3)NC(=O)[C@H](C(C)(C)O)NC2=O)c1", "note": "[Compound 1710] ({CH2CO}-NYD[Phe(3-Me)][Val(3-OH)][Bip][Cit][NMeA][dL][Dab][Cha]VEC[dA]-NH2; thioether N-14)", "IC50": 0.11},
      {"smiles": "CC(C)C[C@@H]1NC(=O)[C@H](CCN)NC(=O)[C@@H](CC(C)C)NC(=O)[C@H](C)N(C)C(=O)[C@H](CCCNC(N)=O)NC(=O)[C@H](Cc2ccc(-c3ccccc3)cc2)NC(=O)[C@H](C(C)C)NC(=O)[C@H](Cc2c[nH]c3ccccc23)NC(=O)[C@H](CC(=O)O)NC(=O)[C@H](Cc2ccc(OCC(=O)O)cc2)NC(=O)[C@H](Cc2ccccn2)NC(=O)CSC[C@@H](C(=O)N[C@@H](C)C(N)=O)NC(=O)[C@H]([C@@H](C)O)NC(=O)[C@H](C(C)C)NC1=O", "note": "[Compound 1329] ({CH2CO}-[2Pal]Y(Carboxymethyl)DWV[Bip][Cit][NMeA][dL][Dab]LVTCA-NH2; thioether N-14)", "IC50": 0.19},
      {"smiles": "CC(C)C[C@@H]1NC(=O)[C@H](CCN)NC(=O)[C@@H](CC(C)C)NC(=O)[C@H](C)N(C)C(=O)[C@H](CCCNC(=N)N)NC(=O)[C@H](Cc2ccc(-c3ccccc3)cc2)NC(=O)[C@H](C(C)C)NC(=O)[C@H](Cc2c[nH]c3ccccc23)NC(=O)[C@H](CC(=O)O)NC(=O)[C@H](Cc2ccc(OCC(=O)O)cc2)NC(=O)[C@H](Cc2cnc[nH]2)NC(=O)CSC[C@@H](C(=O)N[C@@H](C)C(N)=O)NC(=O)[C@H]([C@@H](C)O)NC(=O)[C@H](C(C)C)NC1=O", "note": "[Compound 1150] ({CH2CO}-HY(Carboxymethyl)DWV[Bip]R[NMeA][dL][Dab]LVTCA-NH2; thioether N-14)", "IC50": 0.05},
      {"smiles": "CC(C)C[C@@H]1NC(=O)[C@H](CCCNC(=N)N)NC(=O)[C@@H](CC(C)C)NC(=O)[C@H](C)N(C)C(=O)[C@H](CCCNC(=N)N)NC(=O)[C@H](Cc2ccc(-c3ccccc3)cc2)NC(=O)[C@H](C(C)C)NC(=O)[C@H](Cc2c[nH]c3ccccc23)NC(=O)[C@H](CC(=O)O)NC(=O)[C@H](Cc2cc(I)c(O)c(I)c2)NC(=O)[C@H](Cc2ccccc2)NC(=O)CSC[C@@H](C(=O)N[C@@H](C)C(N)=O)NC(=O)[C@H]([C@@H](C)O)NC(=O)[C@H](C(C)C)NC1=O", "note": "[Compound 1093] ({CH2CO}-F[Tyr(3,5-I2)]DWV[Bip]R[NMeA][dL]RLVTCA-NH2; thioether N-14)", "IC50": 0.05},
      {"smiles": "CCC(C)[C@@H]1NC(=O)[C@H](Cc2ccc(-c3ccccc3)cc2)NC(=O)[C@H](C(C)C)NC(=O)[C@H](Cc2c[nH]c3ccccc23)NC(=O)[C@H](CC(=O)O)NC(=O)[C@H](Cc2ccc(O)cc2)NC(=O)[C@H](Cc2ccncc2)NC(=O)CSC[C@@H](C(=O)N[C@@H](C)C(N)=O)NC(=O)[C@H](C(C)O)NC(=O)[C@H](C(C)C)NC(=O)[C@H](CC2CCCCC2)NC(=O)[C@H](Cc2c[nH]cn2)NC(=O)[C@@H](CC(C)C)NC(=O)[C@H](C)N(C)C1=O", "note": "(stereo partly drawn) [Compound 2093] ({CH2CO}-[4Pal]YDWV[Bip][Ile(3ξ)][NMeA][dL]H[Cha]V[Thr(3ξ)]CA-NH2; thioether N-14)", "IC50": 0.11},
      {"smiles": "COc1cccc(C[C@@H]2NC(=O)[C@H](CC(=O)O)NC(=O)[C@H](Cc3ccc(O)cc3)NC(=O)[C@H](CC(N)=O)NC(=O)CSC[C@@H](C(=O)N[C@@H](C)C(N)=O)NC(=O)[C@H]([C@@H](C)O)NC(=O)[C@H](C(C)C)NC(=O)[C@H](CC(C)C)NC(=O)[C@H](CCN)NC(=O)[C@@H](CC(C)C)NC(=O)[C@H](C)N(C)C(=O)[C@H](CCCNC(N)=O)NC(=O)[C@H](Cc3ccc(-c4ccccc4)cc3)NC(=O)[C@H](C(C)C)NC2=O)c1", "note": "[Compound 1231] ({CH2CO}-NYD[Phe(3-OMe)]V[Bip][Cit][NMeA][dL][Dab]LVTCA-NH2; thioether N-14)", "IC50": 0.04},
      {"smiles": "CCC(C)[C@@H]1NC(=O)[C@H](Cc2ccc(-c3ccccc3)cc2)NC(=O)[C@H](C(C)C)NC(=O)[C@H](Cc2cccc(C)c2)NC(=O)[C@H](CC(=O)O)NC(=O)[C@H](Cc2ccc(C(=O)O)cc2)NC(=O)[C@H](Cc2ccncc2)NC(=O)CSC[C@@H](C(N)=O)NC(=O)[C@H](CCCN)NC(=O)[C@H](C(C)C)NC(=O)[C@H](CC(C)C)NC(=O)[C@H](CCN)NC(=O)[C@@H](CC(C)C)NC(=O)[C@H](C)N(C)C1=O", "note": "(stereo partly drawn) [Compound 1900] ({CH2CO}-[4Pal][Phe(4-COOH)]D[Phe(3-Me)]V[Bip][Ile(3ξ)][NMeA][dL][Dab]LV[Orn]C-NH2; thioether N-14)", "IC50": 0.05},
      {"smiles": "Cc1cccc(C[C@@H]2NC(=O)[C@H](CC(=O)O)NC(=O)[C@H](Cc3ccc(OCC(=O)O)cc3)NC(=O)[C@H](C(C)O)NC(=O)CSC[C@@H](C(=O)N[C@@H](CCN)C(N)=O)NC(=O)[C@H](C(C)O)NC(=O)[C@H](C(C)(C)O)NC(=O)[C@H](CC3CCCCC3)NC(=O)[C@H](CCN)NC(=O)[C@@H](CC(C)C)NC(=O)[C@H](C)N(C)C(=O)[C@H](Cc3ccc(OCC(=O)O)cc3)NC(=O)[C@H](Cc3ccc(-c4ccccc4)cc3)NC(=O)[C@H](Cc3ccc(C(=O)O)cc3)NC2=O)c1", "note": "(stereo partly drawn) [Compound 2148] ({CH2CO}-[Thr(3ξ)]Y(Carboxymethyl)D[Phe(3-Me)][Phe(4-COOH)][Bip]Y(Carboxymethyl)[NMeA][dL][Dab][Cha][Val(3-OH)][Thr(3ξ)]C[Dab]-NH2; thioether N-14)", "IC50": 0.01},
      {"smiles": "CCC(C)[C@@H]1NC(=O)[C@H](Cc2ccc(-c3ccccc3)cc2)NC(=O)[C@H](C(C)C)NC(=O)[C@H](Cc2c[nH]c3ccccc23)NC(=O)[C@H](CC(=O)O)NC(=O)[C@H](Cc2ccc(O)cc2)NC(=O)[C@H](Cc2ccc3cnccc3c2)NC(=O)CSC[C@@H](C(=O)N[C@@H](C)C(N)=O)NC(=O)[C@H](C(C)O)NC(=O)[C@H](C(C)C)NC(=O)[C@H](CC2CCCCC2)NC(=O)[C@H](CCN)NC(=O)[C@@H](CC(C)C)NC(=O)[C@H](C)N(C)C1=O", "note": "(stereo partly drawn) [Compound 2046] ({CH2CO}-[X16]YDWV[Bip][Ile(3ξ)][NMeA][dL][Dab][Cha]V[Thr(3ξ)]CA-NH2; thioether N-14)", "IC50": 0.02}
    ]}
  ]
}
